Source: the supplement of paper PMC10733146

How the values were obtained:
Assay in all cases: viability relative to DMSO control (fraction); higher = less drug effect (more viable cells)
Settings in all cases: 48 h
[1] = test system: primary AML patient cells (S002)
Procedure, shortened: (§1)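 Using 384-well plates with compounds already plated at five concentrations, one well per concentration, 4 × 10^4 primary mononuclear tumour cells were added per well. Cells were Ficoll-isolated from blood or bone marrow or came from processed lymph node, fresh or cryopreserved. They were kept for 48 h at 37 °C and 5% CO2 in RPMI-1640 supplemented with penicillin/streptomycin, L-glutamine and human serum, and viability was read as CellTiter-Glo luminescence relative to the median of 16 inner DMSO wells.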

[2] = test system: primary AML patient cells (S006)
Procedure, shortened: as §1

[3] = test system: primary AML patient cells (S011)
Procedure, shortened: as §1

[4] = test system: primary AML patient cells (S012)
Procedure, shortened: as §1

[5] = test system: primary AML patient cells (S017)
Procedure, shortened: as §1

[6] = test system: primary AML patient cells (S019)
Procedure, shortened: as §1

[7] = test system: primary AML patient cells (S021)
Procedure, shortened: as §1

[8] = test system: primary AML patient cells (S025)
Procedure, shortened: as §1

[9] = test system: primary AML patient cells (S037)
Procedure, shortened: as §1

[10] = test system: primary AML patient cells (S081)
Procedure, shortened: as §1

[11] = test system: primary AML patient cells (S085)
Procedure, shortened: as §1

[12] = test system: primary AML patient cells (S089)
Procedure, shortened: as §1

[13] = test system: primary AML patient cells (S091)
Procedure, shortened: as §1

[14] = test system: primary CLL patient cells (S043)
Procedure, shortened: as §1

[15] = test system: primary DLBCL patient cells (S049)
Procedure, shortened: as §1

[16] = test system: primary DLBCL patient cells (S076)
Procedure, shortened: as §1

[17] = test system: primary T-NHL patient cells (S058)
Procedure, shortened: as §1

## C[C@@H](Oc1cc(-c2cnn(C3CCNCC3)c2)cnc1N)c1c(Cl)ccc(F)c1Cl [Crizotinib]
[1]; 0.024 µM
  viability: 1.04
[1]; 0.12 µM
  viability: 1.08
[1]; 0.6 µM
  viability: 1.01
[1]; 3 µM
  viability: 0.928
[1]; 15 µM
  viability: 0.652
[2]; 0.024 µM
  viability: 0.944
[2]; 0.12 µM
  viability: 0.926
[2]; 0.6 µM
  viability: 0.695
[2]; 3 µM
  viability: 0.491
[2]; 15 µM
  viability: 0.18
[3]; 0.024 µM
  viability: 0.996
[3]; 0.12 µM
  viability: 1.04
[3]; 0.6 µM
  viability: 0.822
[3]; 3 µM
  viability: 0.358
[3]; 15 µM
  viability: 0.0468
[4]; 0.024 µM
  viability: 1
[4]; 0.12 µM
  viability: 1.06
[4]; 0.6 µM
  viability: 0.999
[4]; 3 µM
  viability: 0.992
[4]; 15 µM
  viability: 0.163
[5]; 0.024 µM
  viability: 1.03
[5]; 0.12 µM
  viability: 1.03
[5]; 0.6 µM
  viability: 1.02
[5]; 3 µM
  viability: 0.636
[5]; 15 µM
  viability: 0.299
[6]; 0.024 µM
  viability: 0.982
[6]; 0.12 µM
  viability: 1.11
[6]; 0.6 µM
  viability: 0.911
[6]; 3 µM
  viability: 0.665
[6]; 15 µM
  viability: 0.298
[7]; 0.024 µM
  viability: 1.06
[7]; 0.12 µM
  viability: 1.1
[7]; 0.6 µM
  viability: 1.1
[7]; 3 µM
  viability: 0.831
[7]; 15 µM
  viability: 0.345
[8]; 0.024 µM
  viability: 0.983
[8]; 0.12 µM
  viability: 1.05
[8]; 0.6 µM
  viability: 1.02
[8]; 3 µM
  viability: 0.94
[8]; 15 µM
  viability: 0.794
[9]; 0.024 µM
  viability: 0.974
[9]; 0.12 µM
  viability: 0.982
[9]; 0.6 µM
  viability: 1.01
[9]; 3 µM
  viability: 0.937
[9]; 15 µM
  viability: 0.586
[10]; 0.024 µM
  viability: 0.9
[10]; 0.12 µM
  viability: 0.922
[10]; 0.6 µM
  viability: 0.895
[10]; 3 µM
  viability: 0.85
[10]; 15 µM
  viability: 0.386
[11]; 0.024 µM
  viability: 1.04
[11]; 0.12 µM
  viability: 1.02
[11]; 0.6 µM
  viability: 0.822
[11]; 3 µM
  viability: 0.434
[11]; 15 µM
  viability: 0.18
[12]; 0.024 µM
  viability: 0.935
[12]; 0.12 µM
  viability: 0.93
[12]; 0.6 µM
  viability: 0.722
[12]; 3 µM
  viability: 0.359
[12]; 15 µM
  viability: 0.0318
[13]; 0.024 µM
  viability: 0.922
[13]; 0.12 µM
  viability: 0.97
[13]; 0.6 µM
  viability: 0.817
[13]; 3 µM
  viability: 0.249
[13]; 15 µM
  viability: 0.0707
[14]; 0.024 µM
  viability: 0.95
[14]; 0.12 µM
  viability: 0.977
[14]; 0.6 µM
  viability: 0.949
[14]; 3 µM
  viability: 0.772
[14]; 15 µM
  viability: 0.4
[15]; 0.024 µM
  viability: 1.04
[15]; 0.12 µM
  viability: 1.08
[15]; 0.6 µM
  viability: 1.04
[15]; 3 µM
  viability: 0.98
[15]; 15 µM
  viability: 0.0442
[16]; 0.024 µM
  viability: 0.938
[16]; 0.12 µM
  viability: 1.03
[16]; 0.6 µM
  viability: 0.999
[16]; 3 µM
  viability: 0.77
[16]; 15 µM
  viability: 0.17
[17]; 0.024 µM
  viability: 0.908
[17]; 0.12 µM
  viability: 1.01
[17]; 0.6 µM
  viability: 0.903
[17]; 3 µM
  viability: 0.812
[17]; 15 µM
  viability: 0.335
